This note sets out measurements from article PMC10818931, “In Vitro Evaluation of Drug–Drug Interaction Potential of Epetraborole, a Novel Bacterial Leucyl-tRNA Synthetase Inhibitor” (Pharmaceuticals, 2024).

What all share (assay): Substrate potential in transporter-transfected MDCK cells
What all share (format): in vitro ADME

One data set deals with T1, OAT1 (Homo sapiens, UniProt Q4U2R8).
T1 construct: host or cells: MDCK
T1 sequence (Q4U2R8 1-563): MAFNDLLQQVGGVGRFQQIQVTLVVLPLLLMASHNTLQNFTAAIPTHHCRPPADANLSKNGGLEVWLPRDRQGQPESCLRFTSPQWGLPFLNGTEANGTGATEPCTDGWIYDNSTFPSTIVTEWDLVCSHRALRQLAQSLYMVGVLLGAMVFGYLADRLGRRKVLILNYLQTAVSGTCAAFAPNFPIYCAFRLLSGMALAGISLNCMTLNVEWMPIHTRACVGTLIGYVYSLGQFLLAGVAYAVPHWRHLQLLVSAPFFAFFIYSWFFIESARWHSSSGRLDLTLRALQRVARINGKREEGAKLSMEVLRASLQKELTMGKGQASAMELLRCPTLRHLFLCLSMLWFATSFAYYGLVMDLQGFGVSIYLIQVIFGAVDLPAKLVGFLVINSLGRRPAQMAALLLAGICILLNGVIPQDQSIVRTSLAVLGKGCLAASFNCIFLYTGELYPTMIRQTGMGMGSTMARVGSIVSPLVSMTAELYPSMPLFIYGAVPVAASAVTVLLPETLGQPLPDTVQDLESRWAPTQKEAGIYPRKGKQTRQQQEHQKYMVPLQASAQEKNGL
The method, then:
(§1) The uptake of a probe substrate of each transporter was conducted in parallel with the test article in separate wells of the same batch of vector control and transporter-transfected cells. Cells were incubated at 37 °C with 5% CO2 with 500 μL of dosing solution for different periods of time.

For a further data set, the target named is T2, OAT3 (Homo sapiens, UniProt Q8TCC7).
T2 construct: host or cells: MDCK
T2 sequence (Q8TCC7 1-542): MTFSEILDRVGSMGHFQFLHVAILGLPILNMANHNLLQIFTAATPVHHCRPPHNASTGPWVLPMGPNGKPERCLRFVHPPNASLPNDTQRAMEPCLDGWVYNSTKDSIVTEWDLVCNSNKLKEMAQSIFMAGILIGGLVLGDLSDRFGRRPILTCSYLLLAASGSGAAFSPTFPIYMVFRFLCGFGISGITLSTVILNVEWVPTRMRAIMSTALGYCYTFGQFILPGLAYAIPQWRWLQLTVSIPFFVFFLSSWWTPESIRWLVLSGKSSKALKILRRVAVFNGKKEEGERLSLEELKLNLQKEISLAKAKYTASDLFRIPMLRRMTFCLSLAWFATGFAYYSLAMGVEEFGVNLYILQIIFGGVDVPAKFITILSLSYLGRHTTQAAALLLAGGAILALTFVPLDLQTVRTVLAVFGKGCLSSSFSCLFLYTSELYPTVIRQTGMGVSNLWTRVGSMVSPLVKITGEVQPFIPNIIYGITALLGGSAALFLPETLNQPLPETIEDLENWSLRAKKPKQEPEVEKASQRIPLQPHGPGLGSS
As to the method:
as §1

In a further data set the target is T3, MATE1 (Homo sapiens, UniProt Q96FL8).
T3 construct: host or cells: MDCK
T3 sequence (Q96FL8 1-570): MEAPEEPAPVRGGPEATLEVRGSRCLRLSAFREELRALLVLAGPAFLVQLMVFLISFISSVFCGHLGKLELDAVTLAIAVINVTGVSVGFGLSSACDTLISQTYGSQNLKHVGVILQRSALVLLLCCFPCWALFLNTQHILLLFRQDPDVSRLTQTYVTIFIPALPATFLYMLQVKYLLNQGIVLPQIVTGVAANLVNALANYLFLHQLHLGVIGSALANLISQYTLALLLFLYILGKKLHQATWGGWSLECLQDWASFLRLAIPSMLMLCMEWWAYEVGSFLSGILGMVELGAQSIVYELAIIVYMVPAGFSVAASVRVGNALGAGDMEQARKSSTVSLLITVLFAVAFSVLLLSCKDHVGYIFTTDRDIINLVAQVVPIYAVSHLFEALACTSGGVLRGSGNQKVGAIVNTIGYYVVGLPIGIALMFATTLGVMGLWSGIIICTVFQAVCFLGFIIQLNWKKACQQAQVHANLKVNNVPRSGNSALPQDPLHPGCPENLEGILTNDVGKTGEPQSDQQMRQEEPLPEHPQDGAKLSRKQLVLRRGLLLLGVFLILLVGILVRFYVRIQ
As to the method: as §1

In the next data set the target is T4, MATE2K (Homo sapiens, UniProt Q86VL8).
T4 construct: host or cells: MDCK
The method, then:
as §1

The target in another data set is T5, OATP1B3 (Homo sapiens, UniProt Q9NPD5).
T5 construct: host or cells: MDCK
T5 sequence (Q9NPD5 1-702): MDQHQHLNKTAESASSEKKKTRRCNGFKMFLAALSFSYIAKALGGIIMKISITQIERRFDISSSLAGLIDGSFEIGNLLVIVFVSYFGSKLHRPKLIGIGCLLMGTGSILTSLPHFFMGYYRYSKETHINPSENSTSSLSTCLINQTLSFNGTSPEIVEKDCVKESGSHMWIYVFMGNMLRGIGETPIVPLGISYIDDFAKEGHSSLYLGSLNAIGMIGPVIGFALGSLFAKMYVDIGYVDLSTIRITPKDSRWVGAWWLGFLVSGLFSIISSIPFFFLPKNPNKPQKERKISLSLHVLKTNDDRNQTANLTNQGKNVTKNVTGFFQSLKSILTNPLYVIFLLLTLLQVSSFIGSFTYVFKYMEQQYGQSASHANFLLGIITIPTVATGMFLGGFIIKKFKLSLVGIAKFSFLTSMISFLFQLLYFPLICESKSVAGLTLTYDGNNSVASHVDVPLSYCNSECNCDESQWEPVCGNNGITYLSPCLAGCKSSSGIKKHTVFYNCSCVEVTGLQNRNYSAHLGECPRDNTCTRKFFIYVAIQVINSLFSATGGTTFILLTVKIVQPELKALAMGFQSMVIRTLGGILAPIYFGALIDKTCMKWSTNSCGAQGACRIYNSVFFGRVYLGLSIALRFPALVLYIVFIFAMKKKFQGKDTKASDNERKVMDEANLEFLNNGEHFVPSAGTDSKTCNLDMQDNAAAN
As to the method:
as §1

T4 sequence (Q86VL8 1-566 isoform Q86VL8-3): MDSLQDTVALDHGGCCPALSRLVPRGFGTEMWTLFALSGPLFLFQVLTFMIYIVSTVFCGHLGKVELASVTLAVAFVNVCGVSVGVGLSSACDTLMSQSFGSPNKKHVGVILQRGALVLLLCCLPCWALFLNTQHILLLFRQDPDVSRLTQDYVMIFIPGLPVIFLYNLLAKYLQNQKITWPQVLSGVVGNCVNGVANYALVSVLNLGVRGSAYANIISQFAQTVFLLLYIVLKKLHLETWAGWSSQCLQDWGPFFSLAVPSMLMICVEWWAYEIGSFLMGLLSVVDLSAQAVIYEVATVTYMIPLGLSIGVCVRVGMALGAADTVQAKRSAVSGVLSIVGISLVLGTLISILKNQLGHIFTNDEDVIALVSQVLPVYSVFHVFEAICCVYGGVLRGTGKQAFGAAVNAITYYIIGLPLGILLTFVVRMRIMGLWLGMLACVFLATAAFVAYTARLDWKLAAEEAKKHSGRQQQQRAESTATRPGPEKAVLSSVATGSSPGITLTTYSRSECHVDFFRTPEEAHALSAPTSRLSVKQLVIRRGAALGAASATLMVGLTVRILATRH

Turning to `NC[C@H]1OB(O)c2c(OCCC(=O)O)cccc21` [M3], the Influx ratio at OAT1, at OAT3, at MATE1, at MATE2K and at OATP1B3 was < 2 in each case. Also, the “as a Substrate” value on OAT1, at OAT3, on MATE1, at MATE2K and at OATP1B3 was “No” each time.
For `NC[C@H]1OB(O)c2c(OCCCO)cccc21` [EBO, Epetraborole], the Influx ratio on OAT1, on OAT3, at MATE1, on MATE2K and at OATP1B3 was < 2 throughout. Further, the “as a Substrate” value on OAT1, on OAT3, on MATE1, at MATE2K and on OATP1B3 was “No” each time.
